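GI50 = concentration required for 50% inhibition of growth. TGI is the concentration that stops growth completely.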
Columns and labels:
Experiment in all cases: NCI tumour cell line growth inhibition, 384-well format
786-0 renal = system: 786-0 renal
A498 renal = system: A498 renal
A549 NSCLC = system: A549 NSCLC
ACHN renal = system: ACHN renal
CAKI-1 renal = system: CAKI-1 renal
CCRF-CEM leukemia = system: CCRF-CEM leukemia
COLO 205 colon = system: COLO 205 colon
DU-145 prostate = system: DU-145 prostate
EKVX NSCLC = system: EKVX NSCLC
HCC-2998 colon = system: HCC-2998 colon
HCT-116 colon = system: HCT-116 colon
HCT-15 colon = system: HCT-15 colon
HOP-92 NSCLC = system: HOP-92 NSCLC
IGROV1 ovarian = system: IGROV1 ovarian
K-562 leukemia = system: K-562 leukemia
KM12 colon = system: KM12 colon
M14 melanoma = system: M14 melanoma
MCF7 breast = system: MCF7 breast
MDA-MB-231 breast = system: MDA-MB-231 breast
MOLT-4 leukemia = system: MOLT-4 leukemia
NCI-H226 lung = system: NCI-H226 lung
NCI-H23 lung = system: NCI-H23 lung
NCI-H322M lung = system: NCI-H322M lung
NCI-H460 NSCLC = system: NCI-H460 NSCLC
NCI-H522 lung = system: NCI-H522 lung
NCI/ADR-RES ovarian = system: NCI/ADR-RES ovarian
OVCAR-4 ovarian = system: OVCAR-4 ovarian
OVCAR-5 ovarian = system: OVCAR-5 ovarian
PC-3 prostate = system: PC-3 prostate
RPMI-8226 leukemia = system: RPMI-8226 leukemia
RXF 393 renal = system: RXF 393 renal
SF-268 CNS = system: SF-268 CNS
SF-295 CNS = system: SF-295 CNS
SF-539 CNS = system: SF-539 CNS
SK-MEL-2 melanoma = system: SK-MEL-2 melanoma
SK-MEL-28 melanoma = system: SK-MEL-28 melanoma
SK-MEL-5 melanoma = system: SK-MEL-5 melanoma
SN12C renal = system: SN12C renal
SNB-19 CNS = system: SNB-19 CNS
SNB-75 CNS = system: SNB-75 CNS
SR leukemia = system: SR leukemia
SW-620 colon = system: SW-620 colon
T-47D breast = system: T-47D breast
TK-10 renal = system: TK-10 renal
U251 glioblastoma = system: U251 glioblastoma
UACC-62 melanoma = system: UACC-62 melanoma
UO-31 renal = system: UO-31 renal

Compound `NC(=O)c1nc(-c2c(F)cccc2Cl)oc1Nc1ccc(C(=O)N2CCOCC2)cc1` has a GI50 ([…]-0 renal) of 3.95 µM, a TGI (786-0 renal) of 9.55 µM and a GI50 (A498 renal) of 1.86 µM. The TGI (A498 renal) was 16.1 µM, the GI50 (A549 NSCLC) was 0.686 µM and the TGI (A549 NSCLC) was 5.44 µM. It also gave a GI50 (ACHN renal) of 0.779 µM, a TGI (ACHN renal) of 3.6 µM and a GI50 (CAKI-1 renal) of 1.76 µM. It also gave a TGI (CAKI-1 renal) of 5.85 µM, a GI50 (CCRF-CEM leukemia) of 0.211 µM and a TGI (CCRF-CEM leukemia) of 0.383 µM. The GI50 (COLO 205 colon) was 1.13 µM, the TGI (COLO 205 colon) was 7.44 µM and the GI50 (DU-145 prostate) was 4.44 µM. It also gave a TGI (DU-145 prostate) of 23.2 µM, a GI50 (EKVX NSCLC) of 1.96 µM and a TGI (EKVX NSCLC) of 7.57 µM. For the same compound, the GI50 (HCC-2998 colon) was 6.72 µM, the TGI (HCC-2998 colon) was 21.9 µM and the GI50 (HCT-116 colon) was 0.957 µM. It also gave a TGI (HCT-116 colon) of 13.8 µM, a GI50 (HCT-15 colon) of 2.41 µM and a TGI (HCT-15 colon) of 19 µM. For the same compound, the GI50 (HOP-92 NSCLC) was 0.576 µM, the TGI (HOP-92 NSCLC) was 2.35 µM and the GI50 (IGROV1 ovarian) was 1.4 µM. The TGI (IGROV1 ovarian) was 3.17 µM, the GI50 (K-562 leukemia) was 1.62 µM and the TGI (K-562 leukemia) was 15 µM. It also gave a GI50 (KM12 colon) of 0.17 µM, a TGI (KM12 colon) of 3.89 µM and a GI50 (M14 melanoma) of 17.3 µM. For the same compound, the TGI (M14 melanoma) was > 47.5 µM, the GI50 (MCF7 breast) was 0.708 µM and the TGI (MCF7 breast) was 16.8 µM. For the same compound, the GI50 (MDA-MB-231 breast) was 1.34 µM, the TGI (MDA-MB-231 breast) was 5.94 µM and the GI50 (MOLT-4 leukemia) was 0.182 µM. For the same compound, the TGI (MOLT-4 leukemia) was 0.436 µM, the GI50 (NCI-H226 lung) was 0.474 µM and the TGI (NCI-H226 lung) was 2.67 µM. It also gave a GI50 (NCI-H23 lung) of 0.6 µM, a TGI (NCI-H23 lung) of 4.43 µM and a GI50 (NCI-H322M lung) of 6.5 µM. The TGI (NCI-H322M lung) was 23.6 µM, the GI50 (NCI-H460 NSCLC) was 0.395 µM and the TGI (NCI-H460 NSCLC) was 10.6 µM. It also gave a GI50 (NCI-H522 lung) of 0.795 µM, a TGI (NCI-H522 lung) of 3.76 µM and a GI50 (NCI/ADR-RES ovarian) of 2.46 µM. It also gave a TGI (NCI/ADR-RES ovarian) of 7.79 µM, a GI50 (OVCAR-4 ovarian) of 2.09 µM and a TGI (OVCAR-4 ovarian) of 6.3 µM. The GI50 (OVCAR-5 ovarian) was 2.47 µM, the TGI (OVCAR-5 ovarian) was 19.6 µM and the GI50 (PC-3 prostate) was 4.22 µM. For the same compound, the TGI (PC-3 prostate) was 27.2 µM, the GI50 (RPMI-8226 leukemia) was 0.444 µM and the TGI (RPMI-8226 leukemia) was 4.28 µM. It also gave a GI50 (RXF 393 renal) of 1.1 µM, a TGI (RXF 393 renal) of 3.3 µM and a GI50 (SF-268 CNS) of 2.45 µM. For the same compound, the TGI (SF-268 CNS) was 11.2 µM, the GI50 (SF-295 CNS) was 2.95 µM and the TGI (SF-295 CNS) was > 45.9 µM. It also gave a GI50 (SF-539 CNS) of 1.45 µM, a TGI (SF-539 CNS) of 7.64 µM and a GI50 (SK-MEL-2 melanoma) of 15.3 µM. For the same compound, the TGI (SK-MEL-2 melanoma) was 30.1 µM, the GI50 (SK-MEL-28 melanoma) was 14.2 µM and the TGI (SK-MEL-28 melanoma) was > 90.9 µM. For the same compound, the GI50 (SK-MEL-5 melanoma) was 13.6 µM, the TGI (SK-MEL-5 melanoma) was 34.7 µM and the GI50 (SN12C renal) was 1.64 µM. It also gave a TGI (SN12C renal) of 13.6 µM, a GI50 (SNB-19 CNS) of 3.46 µM and a TGI (SNB-19 CNS) of 24.9 µM. It also gave a GI50 (SNB-75 CNS) of 1.78 µM, a TGI (SNB-75 CNS) of 4.24 µM and a GI50 (SR leukemia) of 0.189 µM. It also gave a TGI (SR leukemia) of 0.342 µM, a GI50 (SW-620 colon) of 0.48 µM and a TGI (SW-620 colon) of 3.37 µM. It also gave a GI50 (T-47D breast) of 0.682 µM, a TGI (T-47D breast) of 20.7 µM and a GI50 (TK-10 renal) of 2.58 µM. For the same compound, the TGI (TK-10 renal) was 8.79 µM, the GI50 (U251 glioblastoma) was 2.59 µM and the TGI (U251 glioblastoma) was 16 µM. For the same compound, the GI50 (UACC-62 melanoma) was 5.96 µM, the TGI (UACC-62 melanoma) was 20.4 µM and the GI50 (UO-31 renal) was 0.171 µM. It also gave a TGI (UO-31 renal) of 0.322 µM.
